Data taken from ChEMBL document CHEMBL4627246, “Pyroglutamide-Based P2X7 Receptor Antagonists Targeting Inflammatory Bowel Disease” (J Med Chem, 2020).

Columns and labels:
Format in all cases: cell-based
HOP-92 = test: Cytotoxicity against human HOP92 cells assessed as effect on cell growth at 10 uM incubated for 48 hrs by sulforhodamine B assay; conditions: hop-92, 48 h
HOP-62 = test: Cytotoxicity against human HOP62 cells assessed as effect on cell growth at 10 uM incubated for 48 hrs by sulforhodamine B assay; conditions: hop-62, 48 h
Hs-578T = test: Cytotoxicity against human Hs 578T cells assessed as effect on cell growth at 10 uM incubated for 48 hrs by sulforhodamine B assay
U-251 = test: Cytotoxicity against human U251 cells assessed as effect on cell growth at 10 uM incubated for 48 hrs by sulforhodamine B assay; conditions: u-251, 48 h
SK-MEL-5 = test: Cytotoxicity against human SK-MEL-5 cells assessed as effect on cell growth at 10 uM incubated for 48 hrs by sulforhodamine B assay; conditions: sk-mel-5, 48 h
SF-268 = test: Cytotoxicity against human SF268 cells assessed as effect on cell growth at 10 uM incubated for 48 hrs by sulforhodamine B assay; conditions: sf-268, 48 h
SF-295 = test: Cytotoxicity against human SF295 cells assessed as effect on cell growth at 10 uM incubated for 48 hrs by sulforhodamine B assay; conditions: sf-295, 48 h
786-0 = test: Cytotoxicity against human 786-0 cells assessed as effect on cell growth at 10 uM incubated for 48 hrs by sulforhodamine B assay; conditions: 786-0, 48 h
NCI-H522 = test: Cytotoxicity against human NCI-H522 cells assessed as effect on cell growth at 10 uM incubated for 48 hrs by sulforhodamine B assay; conditions: nci-h522, 48 h
IGROV-1 = test: Cytotoxicity against human IGROV1 cells assessed as effect on cell growth at 10 uM incubated for 48 hrs by sulforhodamine B assay; conditions: igrov-1, 48 h
SNB-75 = test: Cytotoxicity against human SNB75 cells assessed as effect on cell growth at 10 uM incubated for 48 hrs by sulforhodamine B assay; conditions: snb-75, 48 h
NCI-H460 = test: Cytotoxicity against human NCI-H460 cells assessed as effect on cell growth at 10 uM incubated for 48 hrs by sulforhodamine B assay; conditions: nci-h460, 48 h
SN12C = test: Cytotoxicity against human SN12C cells assessed as effect on cell growth at 10 uM incubated for 48 hrs by sulforhodamine B assay
COLO 205 = test: Cytotoxicity against human COLO205 cells assessed as effect on cell growth at 10 uM incubated for 48 hrs by sulforhodamine B assay; conditions: colo 205, 48 h
HCT-15 = test: Cytotoxicity against human HCT15 cells assessed as effect on cell growth at 10 uM incubated for 48 hrs by sulforhodamine B assay; conditions: hct-15, 48 h
OVCAR-4 = test: Cytotoxicity against human OVCAR4 cells assessed as effect on cell growth at 10 uM incubated for 48 hrs by sulforhodamine B assay; conditions: ovcar-4, 48 h
BT-549 = test: Cytotoxicity against human BT549 cells assessed as effect on cell growth at 10 uM incubated for 48 hrs by sulforhodamine B assay; conditions: bt-549, 48 h
NCI-H226 = test: Cytotoxicity against human NCI-H226 cells assessed as effect on cell growth at 10 uM incubated for 48 hrs by sulforhodamine B assay; conditions: nci-h226, 48 h
Malme-3M = test: Cytotoxicity against human MALME-3M cells assessed as effect on cell growth at 10 uM incubated for 48 hrs by sulforhodamine B assay
NCI/ADR-RES = test: Cytotoxicity against human NCI/ADR-RES cells assessed as effect on cell growth at 10 uM incubated for 48 hrs by sulforhodamine B assay

Measured: Activity

COc1ccc(CN2C(=O)[C@@H]3C/C(=C\N(C)C)C(=O)N3C2N(C)C)c(OC)c1 (stereo not given in full)
Non-Toxic: HOP-92 | HOP-62 | Hs-578T | U-251 | SK-MEL-5 | SF-268 | SF-295 | 786-0 | NCI-H522 | IGROV-1 | SNB-75 | NCI-H460 | SN12C | COLO 205 | HCT-15 | OVCAR-4 | BT-549 | NCI-H226 | Malme-3M | NCI/ADR-RES

O=C(NCc1ccccc1)[C@@H]1CCC(=O)N1Cc1ccc(Cl)cc1Cl
Non-Toxic: HOP-92 | HOP-62 | Hs-578T | U-251 | SK-MEL-5 | SF-268 | SF-295 | 786-0 | NCI-H522 | IGROV-1 | SNB-75 | NCI-H460 | SN12C | COLO 205 | HCT-15 | OVCAR-4 | BT-549 | NCI-H226 | Malme-3M | NCI/ADR-RES

COc1ccc(CNC(=O)[C@@H]2CCC(=O)N2Cc2ccc(Cl)cc2Cl)c(OC)c1
Non-Toxic: HOP-92 | HOP-62 | Hs-578T | U-251 | SK-MEL-5 | SF-268 | SF-295 | 786-0 | NCI-H522 | IGROV-1 | SNB-75 | NCI-H460 | SN12C | COLO 205 | HCT-15 | OVCAR-4 | BT-549 | NCI-H226 | Malme-3M | NCI/ADR-RES

O=C(NCc1ccc(Cl)cc1Cl)[C@@H]1CCC(=O)N1c1nccs1
Non-Toxic: HOP-92 | HOP-62 | Hs-578T | U-251 | SK-MEL-5 | SF-268 | SF-295 | 786-0 | NCI-H522 | IGROV-1 | SNB-75 | NCI-H460 | SN12C | COLO 205 | HCT-15 | OVCAR-4 | BT-549 | NCI-H226 | Malme-3M | NCI/ADR-RES

CN(C)/C=C1\C[C@H]2C(=O)N(Cc3ccccc3Cl)C(N(C)C)N2C1=O (stereo not given in full)
Non-Toxic: HOP-92 | HOP-62 | Hs-578T | U-251 | SK-MEL-5 | SF-268 | SF-295 | 786-0 | NCI-H522 | IGROV-1 | SNB-75 | NCI-H460 | SN12C | COLO 205 | HCT-15 | OVCAR-4 | BT-549 | NCI-H226 | Malme-3M | NCI/ADR-RES

O=C1N[C@H](C(=O)NCc2ccc(Cl)cc2Cl)CO1
Non-Toxic: HOP-92 | HOP-62 | Hs-578T | U-251 | SK-MEL-5 | SF-268 | SF-295 | 786-0 | NCI-H522 | IGROV-1 | SNB-75 | NCI-H460 | SN12C | COLO 205 | HCT-15 | OVCAR-4 | BT-549 | NCI-H226 | Malme-3M | NCI/ADR-RES

COc1ccc(NC(=O)[C@@H]2CCC(=O)N2)cc1OC
Non-Toxic: HOP-92 | HOP-62 | Hs-578T | U-251 | SK-MEL-5 | SF-268 | SF-295 | 786-0 | NCI-H522 | IGROV-1 | SNB-75 | NCI-H460 | SN12C | COLO 205 | HCT-15 | OVCAR-4 | BT-549 | NCI-H226 | Malme-3M | NCI/ADR-RES

CN(C)/C=C1\C[C@@H](C(=O)NCc2ccc(Cl)cc2Cl)N(c2cccs2)C1=O
Non-Toxic: HOP-92 | HOP-62 | Hs-578T | U-251 | SK-MEL-5 | SF-268 | SF-295 | 786-0 | NCI-H522 | IGROV-1 | SNB-75 | NCI-H460 | SN12C | COLO 205 | HCT-15 | OVCAR-4 | BT-549 | NCI-H226 | Malme-3M | NCI/ADR-RES

O=C(NCc1ccc(Cl)cc1Cl)[C@@H]1CCC(=O)N1c1ccccc1
Non-Toxic: HOP-92 | HOP-62 | Hs-578T | U-251 | SK-MEL-5 | SF-268 | SF-295 | 786-0 | NCI-H522 | IGROV-1 | SNB-75 | NCI-H460 | SN12C | COLO 205 | HCT-15 | OVCAR-4 | BT-549 | NCI-H226 | Malme-3M | NCI/ADR-RES

COc1ccc(NC(=O)[C@@H]2C/C(=C\N(C)C)C(=O)N2)cc1
Non-Toxic: HOP-92 | HOP-62 | Hs-578T | U-251 | SK-MEL-5 | SF-268 | SF-295 | 786-0 | NCI-H522 | IGROV-1 | SNB-75 | NCI-H460 | SN12C | COLO 205 | HCT-15 | OVCAR-4 | BT-549 | NCI-H226 | Malme-3M | NCI/ADR-RES

CN1C(=O)C(C)(C)C[C@H]1C(=O)NCc1cccc(C(F)(F)F)c1Cl
Non-Toxic: HOP-92 | HOP-62 | Hs-578T | U-251 | SK-MEL-5 | SF-268 | SF-295 | 786-0 | NCI-H522 | IGROV-1 | SNB-75 | NCI-H460 | SN12C | COLO 205 | HCT-15 | OVCAR-4 | BT-549 | NCI-H226 | Malme-3M | NCI/ADR-RES

CCCCCCN1C(=O)[C@@H]2CCC(=O)N2C1N(C)C (stereo not given in full)
Non-Toxic: HOP-92 | HOP-62 | Hs-578T | U-251 | SK-MEL-5 | SF-268 | SF-295 | 786-0 | NCI-H522 | IGROV-1 | SNB-75 | NCI-H460 | SN12C | COLO 205 | HCT-15 | OVCAR-4 | BT-549 | NCI-H226 | Malme-3M | NCI/ADR-RES

Cc1ccc(NC(=O)[C@@H]2CCC(=O)N2c2ccccc2)cc1
Non-Toxic: HOP-92 | HOP-62 | Hs-578T | U-251 | SK-MEL-5 | SF-268 | SF-295 | 786-0 | NCI-H522 | IGROV-1 | SNB-75 | NCI-H460 | SN12C | COLO 205 | HCT-15 | OVCAR-4 | BT-549 | NCI-H226 | Malme-3M | NCI/ADR-RES

O=C(NCc1ccc(Cl)cc1Cl)[C@@H]1CCC(=O)N1c1cncs1
Non-Toxic: HOP-92 | HOP-62 | Hs-578T | U-251 | SK-MEL-5 | SF-268 | SF-295 | 786-0 | NCI-H522 | IGROV-1 | SNB-75 | NCI-H460 | SN12C | COLO 205 | HCT-15 | OVCAR-4 | BT-549 | NCI-H226 | Malme-3M | NCI/ADR-RES
